Measured values: patent US20260217693A1, “SRPK1 INHIBITORS AND METHODS OF USE” (ALLIANTHERA (SUZHOU) BIOPHARMACEUTICAL CO., LTD., priority 2023, published 2026)

Target: SRPK1 (Homo sapiens, UniProt Q96SB4)
Test: SRPK1 assay, Method 2 (ADP-Glo luminescence)
Assay type: biochemical
Conditions: Method 2 (asterisk): substrate Human SRSF1/SF2 0.15 μM, ATP 4 μM, 25° C. for 3 h, test compounds 100 nM top, 3-fold, 10 dose
Method: The SPRK1 assay was performed as follows:
Method 2: The assay buffer was prepared. The reference compound was diluted to 1 mM in the assay buffer. The test compounds were prepared at a concentration of 100 μM, then diluted 3-fold. Five nL of compounds/DMSO were transferred to 384-well plate. The reference compound is 1000 nM top concentration, 3-fold, 10 dose. The test compounds are 100 nM top concentration, 3-fold, 10 dose. 2.5 ul of enzyme (SRPK1 final concentration at […]) was added to each well, then the plate was spun down at 1000 rpm and centrifuged for 30 sec. After, 2.5 ul substrate (Human SRSF1/SF2 final concentration of 0.15 μM, ATP final concentration of 4 μM) was added to the plate, spun down at 1000 rpm and centrifuged for 30 sec. The plate was then placed in an incubator at 25° C. for 3 h. Then, 5 μl of ADP-Glo™ Reagent was added to each well, and the plate incubated at room temperature for 60 minutes. After 60 min, 10 μl of Kinase Detection Reagent was added to each well, and the plate was incubated at room temperature for 30 minutes. The luminescence of each well was recorded on Envision.
All assays were performed using Method 1, except where indicated with an asterisk (*) in the below table, indicating Method 2 was used. I.A. indicates an IC50 greater than 30 μM.

SRPK1, sequence (Q96SB4 whole entry): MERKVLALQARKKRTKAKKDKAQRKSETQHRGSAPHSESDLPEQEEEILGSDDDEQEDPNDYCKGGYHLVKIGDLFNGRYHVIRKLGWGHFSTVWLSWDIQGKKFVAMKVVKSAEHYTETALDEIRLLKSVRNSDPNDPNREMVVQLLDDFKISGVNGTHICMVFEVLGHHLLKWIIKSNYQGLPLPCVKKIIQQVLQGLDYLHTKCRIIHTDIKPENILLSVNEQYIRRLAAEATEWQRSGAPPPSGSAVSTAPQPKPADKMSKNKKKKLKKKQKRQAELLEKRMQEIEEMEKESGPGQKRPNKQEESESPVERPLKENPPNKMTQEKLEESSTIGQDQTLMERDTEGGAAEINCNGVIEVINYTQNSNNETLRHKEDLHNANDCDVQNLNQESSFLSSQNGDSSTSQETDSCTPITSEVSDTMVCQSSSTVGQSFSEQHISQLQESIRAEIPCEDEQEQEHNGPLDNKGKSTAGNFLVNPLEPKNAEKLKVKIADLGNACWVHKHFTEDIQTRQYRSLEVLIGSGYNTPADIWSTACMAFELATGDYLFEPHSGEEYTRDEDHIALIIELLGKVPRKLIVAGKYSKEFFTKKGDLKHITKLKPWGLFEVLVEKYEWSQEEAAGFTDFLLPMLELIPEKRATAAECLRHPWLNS

Compound | IC50 [nM]
Nc1cc(-c2ccc(C(=O)Nc3cc(C(F)(F)F)cnc3N3CCC(O)CC3)o2)ccn1 [Compound 015] | 3.98
Nc1cc(-c2ccc(C(=O)Nc3cc(C4CC4)cnc3N3CCC(O)CC3)o2)ccn1 [Compound 018] | 0.942
Nc1cc(-c2ccc(C(=O)Nc3cc(C4CC4)cnc3N3CCC(O)CC3)o2)cc(N)n1 [Compound 020] | 0.248
O=C(Nc1cc(C2CC2)cnc1N1CCC(O)CC1)c1ccc(-c2ccnc(O)c2)o1 [Compound 022] | 1.4
CC1(C(N)=O)CCN(c2ncc(C(F)(F)F)cc2NC(=O)c2ccc(C3CCOCC3)o2)CC1 [Compound 048] | 24.9
O=C(Nc1cc(C(F)(F)F)cnc1N1CCC(O)CC1)c1ccc(-c2cn[nH]c2)o1 [Compound 053] | 1.98
O=C(Nc1cc(C2CC2)cnc1N1CCC(O)CC1)c1ccc(-c2cn[nH]c2)o1 [Compound 086] | 0.615
CC1(O)CCN(c2ncc(C3CC3)cc2NC(=O)c2ccc(-c3cn[nH]c3)o2)CC1 [Compound 095, N-[5-cyclopropyl-2-(4-hydroxy-4-methyl-1-piperidyl)-3-pyridyl]-5-(1H-pyrazol-4-yl) furan-2-carboxamide] | 0.769
O=C(Nc1cc(C(F)(F)F)cnc1N1CCC(O)CC1)c1ccc(-c2cn[nH]c2)cn1 [Compound 097, N-[2-(4-hydroxy-1-piperidyl)-5-(trifluoromethyl)-3-pyridyl]-5-(1H-pyrazol-4-yl)pyridine-2-carboxamide] | 3.23
